Results published in patent US7785828B1 (priority 2003, dated 2010).
Where two headings read alike, the source gives them in different places.

Tests used:
Septoria tritici [1] = assay type: cell-based; parameters: key: + indicates a 1- to 5-fold improvement in activity compared to a reference defensin protein; ++ indicates a >5- to 10-fold improvement; +++ indicates a >10-fold improvement; “0” indicates no activity detected
Fusarium graminearum [2] = tested on: Fusarium graminearum; parameters: species or system wheat; settings: in vivo
Fusarium graminearum [3] = assay type: cell-based
Mycosphaerella fijiensis = assay type: cell-based
Septoria tritici [4] = assay type: cell-based
Fusarium graminearum [5] = assay type: cell-based
[6] = Measurement taken at 72 hours after inoculation, fold improvement compared to DmAMP1
[7] = Measurement taken at 144 hours after inoculation, fold improvement compared to DmAMP1
[8] = Table 2C (mixed diversity library), improvement compared to reference defensin protein DmAMP

Sequence: QKLCEKPSRTWSGVCGNNNACKNQCIRLEKARHGSCNYRFPAHKCICYVPC (Defensin like) [L1-01]
- Activity (2): antifungal activity against Septoria tritici (Septoria tritici [1]): 0

Sequence: QKLCQRPSGTWSGVCMNNNACKNQCIRLEKAKHGSCNYVFPAHKCICYFPC (Defensin like) [L2-52]
- disease spread compared to NP or wildtype defensin expression level in the infected plant (Fusarium graminearum [2]): No clear correlation

Sequence: NLCERASKTWSGNCGNTKHCDNQCKNWEGAKHGACHVRNGKHKCFCYFNC [L6-28] (Defensin like)
- Antifungal activity, Fusarium graminearum (improvement compared to DmAMP1) (Fusarium graminearum [3]): +++ (key: + indicating 1- to 5-fold improvement compared to DmAMP1; ++ indicating >5- to 10-fold improvement; +++ indicating >10-fold improvement)
- Antifungal activity, Mycosphaerella fijiensis (improvement compared to DmAMP1) (Mycosphaerella fijiensis): + (key: + indicating 1- to 5-fold improvement compared to DmAMP1; ++ indicating >5- to 10-fold improvement; +++ indicating >10-fold improvement)
- Antifungal activity, Septoria tritici (improvement compared to DmAMP1) (Septoria tritici [4]): + (key: + indicating 1- to 5-fold improvement compared to DmAMP1; ++ indicating >5- to 10-fold improvement; +++ indicating >10-fold improvement)
- disease spread compared to NP or wildtype defensin expression level in the infected plant (Fusarium graminearum [2]): No clear correlation

Sequence: QKLCQKPSRTWSGVCGNNNACKNQCIRLEKARHGSCNYVFPAHKCICYFPC (Defensin like) [L2-12]
- disease spread compared to NP or wildtype defensin expression level in the infected plant (Fusarium graminearum [2]): A protective effect was also seen

Sequence: ELCEKASKTWSGNCGNTKHCDTQCKNWEGAKHGACHVRSGKHKCFCYFNC (Defensin like) [L3-135]
- disease spread compared to NP or wildtype defensin expression level in the infected plant (Fusarium graminearum [2]): clear inverse correlation between expression level and disease spread

Sequence: DGVKLCERPSQTWTGNCGNTKHCDKQCKNWEKAKHGACHVRNGKWKCFCYFNC (Defensin like) [L7-457]
- Antifungal activity, Fusarium graminearum (improvement compared to DmAMP1) (Fusarium graminearum [3]; [6]): + (+ indicating 1- to 5-fold improvement compared to DmAMP1)
- Antifungal activity, Mycosphaerella fijiensis (improvement compared to DmAMP1) (Mycosphaerella fijiensis; [7]): + (+ indicating 1- to 5-fold improvement compared to DmAMP1)
- Antifungal activity, Septoria tritici (improvement compared to DmAMP1) (Septoria tritici [4]; [7]): + (+ indicating 1- to 5-fold improvement compared to DmAMP1)
- Activity (1): antifungal activity of the NP against Fusarium graminearium (Fusarium graminearum [5]; [8]): +++ (+++ indicates a >10-fold improvement)

Sequence: DGVKLCERASQTWSGHCGNTKHCDNQCKSWEKAKHGACHVRSGKHKCFCYFNC (Defensin like) [L7-58]
- Antifungal activity, Fusarium graminearum (improvement compared to DmAMP1) (Fusarium graminearum [3]; [6]): + (+ indicating 1- to 5-fold improvement compared to DmAMP1)
- Antifungal activity, Mycosphaerella fijiensis (improvement compared to DmAMP1) (Mycosphaerella fijiensis; [7]): + (+ indicating 1- to 5-fold improvement compared to DmAMP1)
- Antifungal activity, Septoria tritici (improvement compared to DmAMP1) (Septoria tritici [4]; [7]): + (+ indicating 1- to 5-fold improvement compared to DmAMP1)
- Activity (1): antifungal activity of the NP against Fusarium graminearium (Fusarium graminearum [5]; [8]): +++ (+++ indicates a >10-fold improvement)

Sequence: DGVKLCEKPSKTWSGHCGNTKHCDTQCRNWEKAKHGACHVRNGKWKCFCYFNC (Defensin like) [L7-392]
- Antifungal activity, Fusarium graminearum (improvement compared to DmAMP1) (Fusarium graminearum [3]; [6]): + (+ indicating 1- to 5-fold improvement compared to DmAMP1)
- Antifungal activity, Mycosphaerella fijiensis (improvement compared to DmAMP1) (Mycosphaerella fijiensis; [7]): + (+ indicating 1- to 5-fold improvement compared to DmAMP1)
- Antifungal activity, Septoria tritici (improvement compared to DmAMP1) (Septoria tritici [4]; [7]): + (+ indicating 1- to 5-fold improvement compared to DmAMP1)
- Activity (1): antifungal activity of the NP against Fusarium graminearium (Fusarium graminearum [5]; [8]): +++ (+++ indicates a >10-fold improvement)

Sequence: DGVKLCERASQTWTGHCGNTKHCDNQCKNWEGAKHGACHKRSGKWKCFCYFNC (Defensin like) [L7-176]
- Antifungal activity, Fusarium graminearum (improvement compared to DmAMP1) (Fusarium graminearum [3]; [6]): + (+ indicating 1- to 5-fold improvement compared to DmAMP1)
- Antifungal activity, Mycosphaerella fijiensis (improvement compared to DmAMP1) (Mycosphaerella fijiensis; [7]): + (+ indicating 1- to 5-fold improvement compared to DmAMP1)
- Antifungal activity, Septoria tritici (improvement compared to DmAMP1) (Septoria tritici [4]; [7]): + (+ indicating 1- to 5-fold improvement compared to DmAMP1)
- Activity (1): antifungal activity of the NP against Fusarium graminearium (Fusarium graminearum [5]; [8]): +++ (+++ indicates a >10-fold improvement)

Sequence: NLCERASKTWTGNCGNTKHCDTQCKSWEGAKHGACHVRNGKHKCECYFNC (NLCERASKTWTGNCGNTKHCDTQCKSWEGAKHGACHVRNGKHKCFCYFNC; Defensin like) [L6-84]
- Antifungal activity, Fusarium graminearum (improvement compared to DmAMP1) (Fusarium graminearum [3]; [6]): +++ (+++ indicating >10-fold improvement)
- Antifungal activity, Mycosphaerella fijiensis (improvement compared to DmAMP1) (Mycosphaerella fijiensis; [7]): +++ (+++ indicating >10-fold improvement)
- Antifungal activity, Septoria tritici (improvement compared to DmAMP1) (Septoria tritici [4]; [7]): + (+ indicating 1- to 5-fold improvement compared to DmAMP1)
- Activity (1): antifungal activity of the NP against Fusarium graminearium (Fusarium graminearum [5]; Table 2B (Dm-AMP1 based libraries), improvement compared to reference defensin protein (Rs-AFP2 for Table 2B [sic])): +++ (+++ indicates a >10-fold improvement)

Sequence: DGVKLCERPSQTWTGNCGNTKHCDKQCRNWEGAKHGACHVRNGKWKCFCYFNC (Defensin like) [L7-39]
- Antifungal activity, Fusarium graminearum (improvement compared to DmAMP1) (Fusarium graminearum [3]; [6]): + (+ indicating 1- to 5-fold improvement compared to DmAMP1)
- Antifungal activity, Mycosphaerella fijiensis (improvement compared to DmAMP1) (Mycosphaerella fijiensis; [7]): + (+ indicating 1- to 5-fold improvement compared to DmAMP1)
- Antifungal activity, Septoria tritici (improvement compared to DmAMP1) (Septoria tritici [4]; [7]): + (+ indicating 1- to 5-fold improvement compared to DmAMP1)
- Activity (1): antifungal activity of the NP against Fusarium graminearium (Fusarium graminearum [5]; [8]): ++ (++ indicates a >5- to 10-fold improvement)
